Results reported in US5223526A, “Pyrazole carboxanilide fungicides and use” (Monsanto Company, priority 1992, dated 1993).

Key:
[1] = biological target: T1, succinate dehydrogenase (Botrytis cinerea, UniProt A0A384J5E4+A0A384J8V8+A0A384JHJ5); experiment: Enzyme inhibition: succinate dehydrogenase activity in Botrytis cinerea mitochondria (DCPIP reduction); assay type: biochemical; settings: concentration required to inhibit the rate of DCPIP reduction by 50%; Botrytis cinerea isolate Nick mitochondria; read-out: I50 (μM conc.)
T1 construct: succinate-DCPIP reductase assay with KCN
In short: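 Crude mitochondria from Botrytis cinerea isolate Nick mycelia, prepared by bead-beating and differential centrifugation, started reactions. SDH activity followed as DCPIP reduction at 600 nm in 50 mM K-phosphate pH 7.2 with 1 mM KCN, 45 μM DCPIP, 17 mM succinate, 1% acetone. I50 from semilog inhibition plots, corrected for succinate-free rates.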

[2] = test system: Botrytis cinerea; experiment: Vine grey mold (grape berries); assay type: in vivo; settings: average of six berries, 7-10 days; for pest or weed control at 50 ppm: grape berries treated with 50 ppm, read-out: % DISEASE CONTROL 50 ppm; for pest or weed control at 200 ppm: grape berries treated with 200 ppm, read-out: % DISEASE CONTROL 200 ppm
In short: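 Preventive berry test: compound at 50 or 200 ppm (acetone/water, 0.05% Tween 20) applied one day before inoculation with 10^6 spores/mL Botrytis conidia. After 7-10 days at 20 °C under 12 h light, infected surface area rated; disease control expressed as percent reduction from control mean; repeated-test values averaged.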

[3] = test system: Rhizoctonia solani; experiment: Rice sheath blight; assay type: in vivo; set-up: scale not given here; settings: inoculated two days later, rated after 7 days, average of five plants; for Disease Control Rating at 0.5 mg/mL: foliage and soil sprayed with 0.5 mg/mL; for Disease Control Rating at 0.02 mg/mL: foliage and soil sprayed with 0.02 mg/mL; for Disease Control Rating at 0.1 mg/mL: foliage and soil sprayed with 0.1 mg/mL
In short: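 Rice plants 11–15 days old had foliage and soil sprayed with 0.5, 0.1 or 0.02 mg/mL Compound A in water/acetone/Tween 20, then kept in flooded trays. Two days later, rice-grain Rhizoctonia solani inoculum went to plant bases; disease control scored versus untreated after 7 days at 25 °C, high humidity, averaging five plants.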

[4] = test system: Botrytis cinerea; experiment: Eggplant grey mold; assay type: in vivo; set-up: scale not given here; settings: inoculated 24 h later, rated after 3-4 days; for Disease Control Rating at 500 ppm: eggplant sprayed with 500 ppm; for Disease Control Rating at 20 ppm: eggplant sprayed with 20 ppm; for Disease Control Rating at 100 ppm: eggplant sprayed with 100 ppm
In short: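 Protective test: compound formulations (2:3 acetone:water, 0.5% Tween 20; 500, 100 or 20 ppm) sprayed on 14-18-day-old plants, with spore inoculum (4×10^6 spore/mL) applied a day later. Disease control rated on Botrytis lesions after 3-4 days at 23 °C and 100% humidity.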

T1 sequence (A0A384J5E4 1-300): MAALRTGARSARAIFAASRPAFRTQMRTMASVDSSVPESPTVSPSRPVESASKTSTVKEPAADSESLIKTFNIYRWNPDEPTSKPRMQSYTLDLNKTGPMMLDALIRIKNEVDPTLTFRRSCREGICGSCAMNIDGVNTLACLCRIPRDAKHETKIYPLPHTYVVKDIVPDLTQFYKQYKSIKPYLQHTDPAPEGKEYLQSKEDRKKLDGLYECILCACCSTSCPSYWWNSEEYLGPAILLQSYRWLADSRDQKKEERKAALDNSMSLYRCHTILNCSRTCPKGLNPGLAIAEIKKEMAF
T1 sequence (A0A384J8V8 1-189): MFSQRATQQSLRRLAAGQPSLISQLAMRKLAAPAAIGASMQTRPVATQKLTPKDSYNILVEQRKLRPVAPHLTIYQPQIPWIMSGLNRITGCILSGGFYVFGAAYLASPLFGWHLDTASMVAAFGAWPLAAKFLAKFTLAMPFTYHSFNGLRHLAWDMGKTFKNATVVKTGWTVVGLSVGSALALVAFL
T1 sequence (A0A384JHJ5 1-192): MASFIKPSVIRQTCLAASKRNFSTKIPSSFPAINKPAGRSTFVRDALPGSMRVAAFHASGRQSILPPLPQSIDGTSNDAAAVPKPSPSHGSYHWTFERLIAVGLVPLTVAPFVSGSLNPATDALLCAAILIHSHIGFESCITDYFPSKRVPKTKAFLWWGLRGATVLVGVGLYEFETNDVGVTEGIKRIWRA
T1 sequence (A0A384K456 1-647 partner): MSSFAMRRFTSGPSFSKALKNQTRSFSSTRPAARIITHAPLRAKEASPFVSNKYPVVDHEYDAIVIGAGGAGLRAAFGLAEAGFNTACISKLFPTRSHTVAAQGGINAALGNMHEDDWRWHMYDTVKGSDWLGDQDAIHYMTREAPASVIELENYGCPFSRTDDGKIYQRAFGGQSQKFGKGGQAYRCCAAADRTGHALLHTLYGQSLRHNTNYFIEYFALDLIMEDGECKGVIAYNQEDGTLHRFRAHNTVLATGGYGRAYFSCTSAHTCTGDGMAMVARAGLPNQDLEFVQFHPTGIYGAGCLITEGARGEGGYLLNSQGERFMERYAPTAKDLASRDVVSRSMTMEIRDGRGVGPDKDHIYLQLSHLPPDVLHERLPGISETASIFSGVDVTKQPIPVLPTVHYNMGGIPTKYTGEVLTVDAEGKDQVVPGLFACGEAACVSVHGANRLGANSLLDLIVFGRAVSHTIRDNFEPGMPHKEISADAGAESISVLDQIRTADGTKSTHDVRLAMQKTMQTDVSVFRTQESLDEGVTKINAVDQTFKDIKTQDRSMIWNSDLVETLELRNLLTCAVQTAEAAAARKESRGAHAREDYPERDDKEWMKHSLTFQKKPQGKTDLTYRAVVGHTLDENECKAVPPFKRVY

Compound: Cn1cc(C(=O)Nc2ccccc2C2=CCOCC2)c(C(F)(F)F)n1 [Example 108, 1H-pyrazole-4-carboxamide, N-[2-(5,6-dihydro-2H-pyran-4-yl)phenyl]-1-methyl-3-(trifluoromethyl)-]
- IC50 [1]: 1.6 µM
- pest or weed control at 50 ppm [2]: 12%
- pest or weed control at 200 ppm [2]: 0%
- Disease Control Rating at 0.5 mg/mL [3]: 0
- Disease Control Rating at 500 ppm [4]: 0

Compound: Cn1cc(C(=O)Nc2ccccc2C2=CCC(C(C)(C)C)CC2)c(C(F)(F)F)n1 (stereo not drawn) [Example 133, 1H-pyrazole-4-carboxamide, N-[2-[4-(1, -dimethylethyl)-1-cyclohexen-1-yl]phenyl]-1-methyl-3-(trifluoromethyl)-]
- IC50 [1]: 0.0046 µM
- pest or weed control at 50 ppm [2]: 39%
- pest or weed control at 200 ppm [2]: 36%
- Disease Control Rating at 0.02 mg/mL [3]: 1
- Disease Control Rating at 0.1 mg/mL [3]: 2
- Disease Control Rating at 0.5 mg/mL [3]: 3
- Disease Control Rating at 20 ppm [4]: 0
- Disease Control Rating at 100 ppm [4]: 0
- Disease Control Rating at 500 ppm [4]: 1

Compound: Cc1cccc(NC(=O)c2cn(C)nc2C(F)F)c1C1CCCCC1 [Example 20, 1H-pyrazole-4-carboxamide, N-(2-cyclohexyl-3-methylphenyl)-3-(difluoromethyl)-1-methyl-]
- IC50 [1]: 0.014 µM
- pest or weed control at 50 ppm [2]: 78%
- pest or weed control at 200 ppm [2]: 81%
- Disease Control Rating at 0.02 mg/mL [3]: 2
- Disease Control Rating at 0.1 mg/mL [3]: 3
- Disease Control Rating at 0.5 mg/mL [3]: 3
- Disease Control Rating at 20 ppm [4]: 1
- Disease Control Rating at 100 ppm [4]: 2
- Disease Control Rating at 500 ppm [4]: 3

Compound: Cc1nn(C)c(C)c1C(=O)Nc1ccccc1C1CCCCC1 [Example 30, 1H-pyrazole-4-carboxamide, N-(2-cyclohexylphenyl)-1,3,5-trimethyl-]
- IC50 [1]: 0.34 µM
- pest or weed control at 50 ppm [2]: 75%
- pest or weed control at 200 ppm [2]: 59%
- Disease Control Rating at 0.02 mg/mL [3]: 2
- Disease Control Rating at 0.1 mg/mL [3]: 3
- Disease Control Rating at 0.5 mg/mL [3]: 3
- Disease Control Rating at 20 ppm [4]: 0
- Disease Control Rating at 100 ppm [4]: 2
- Disease Control Rating at 500 ppm [4]: 2

Compound: Cn1cc(C(=O)Nc2ccccc2C2=CCSCC2)c(C(F)F)n1 [Example 144, 1H-pyrazole-4-carboxamide, 3-(difluoromethyl)-N-[2-(5,6-dihydro-2H-thiopyran-4-yl)phenyl]-1-methyl-]
- IC50 [1]: 0.037 µM
- pest or weed control at 50 ppm [2]: 15%
- pest or weed control at 200 ppm [2]: 37%
- Disease Control Rating at 0.5 mg/mL [3]: 3
- Disease Control Rating at 20 ppm [4]: 0
- Disease Control Rating at 100 ppm [4]: 0
- Disease Control Rating at 500 ppm [4]: 1

Compound: CCC1CC=C(c2ccccc2NC(=O)c2cn(C)nc2C(F)(F)F)CC1 (stereo not drawn) [Example 126, 1H-pyrazole-4-carboxamide, N-[2-(4-ethyl-1-cyclohexen-1-yl)phenyl]-1-methyl-3-(trifluoromethyl)-]
- IC50 [1]: 0.0066 µM
- pest or weed control at 50 ppm [2]: 59%
- pest or weed control at 200 ppm [2]: 97%
- Disease Control Rating at 0.5 mg/mL [3]: 3
- Disease Control Rating at 20 ppm [4]: 0
- Disease Control Rating at 100 ppm [4]: 1
- Disease Control Rating at 500 ppm [4]: 1

Compound: Cc1nn(C)c(C)c1C(=O)Nc1ccccc1C1CCCCCC1 [Example 66, 1H-pyrazole-4-carboxamide, N-(2-cycloheptylphenyl)-1,3,5-trimethyl-]
- IC50 [1]: 0.048 µM
- pest or weed control at 50 ppm [2]: 32%
- pest or weed control at 200 ppm [2]: 35%
- Disease Control Rating at 0.02 mg/mL [3]: 3
- Disease Control Rating at 0.1 mg/mL [3]: 3
- Disease Control Rating at 0.5 mg/mL [3]: 3
- Disease Control Rating at 20 ppm [4]: 0
- Disease Control Rating at 100 ppm [4]: 0
- Disease Control Rating at 500 ppm [4]: 2

Compound: Cn1cc(C(=O)Nc2ccccc2C2CCCCCC2)c(OC(F)F)n1 [Example 60]
- IC50 [1]: 0.35 µM
- pest or weed control at 50 ppm [2]: 0%
- pest or weed control at 200 ppm [2]: 0%
- Disease Control Rating at 0.5 mg/mL [3]: 0
- Disease Control Rating at 500 ppm [4]: 0

Compound: Cc1c(C(=O)Nc2ccccc2[C@@H]2C[C@H]3CC[C@@H]2C3)c(C(F)(F)F)nn1C (relative stereo) [Example 100, 1H-pyrazole-4-carboxamide, N-(2-bicyclo[2.2.1]hept-2-ylphenyl)-1,5-dimethyl-3-(trifluoromethyl)-, exo-]
- IC50 [1]: 0.19 µM
- pest or weed control at 50 ppm [2]: 0%
- pest or weed control at 200 ppm [2]: 22%
- Disease Control Rating at 0.02 mg/mL [3]: 0
- Disease Control Rating at 0.1 mg/mL [3]: 1
- Disease Control Rating at 0.5 mg/mL [3]: 2
- Disease Control Rating at 500 ppm [4]: 0

Compound: Cc1nn(C)cc1C(=O)Nc1ccccc1C1CCCCCC1 [Example 13, 1H-pyrazole-4-carboxamide, N-(2-cycloheptylphenyl)-1,3-dimethyl-]
- IC50 [1]: 0.011 µM
- pest or weed control at 50 ppm [2]: 63%
- pest or weed control at 200 ppm [2]: 66%
- Disease Control Rating at 0.02 mg/mL [3]: 2
- Disease Control Rating at 0.1 mg/mL [3]: 3
- Disease Control Rating at 0.5 mg/mL [3]: 3
- Disease Control Rating at 20 ppm [4]: 1
- Disease Control Rating at 100 ppm [4]: 1
- Disease Control Rating at 500 ppm [4]: 3

Compound: Cn1cc(C(=O)Nc2ccccc2[C@@H]2C[C@H]3CC[C@@H]2C3)c(C(F)F)n1 (relative stereo) [Example 26, 1H-pyrazole-4-carboxamide, N-(2-bicyclo[2.2.1]hept-2-ylphenyl)-3-(difluoromethyl)-1-methyl-, exo-]
- IC50 [1]: 0.0017 µM
- pest or weed control at 50 ppm [2]: 97%
- pest or weed control at 200 ppm [2]: 100%
- Disease Control Rating at 0.5 mg/mL [3]: 1
- Disease Control Rating at 20 ppm [4]: 1
- Disease Control Rating at 100 ppm [4]: 2
- Disease Control Rating at 500 ppm [4]: 1

Compound: COc1ccc(C2CCCCC2)c(NC(=O)c2cn(C)nc2C(F)(F)F)c1 [Example 32, 1H-pyrazole-4-carboxamide, N-(2-cyclohexyl-5-methoxyphenyl)-1-methyl-3-(trifluoromethyl)-]
- IC50 [1]: 0.11 µM
- pest or weed control at 50 ppm [2]: 6%
- pest or weed control at 200 ppm [2]: 5%
- Disease Control Rating at 0.5 mg/mL [3]: 0
- Disease Control Rating at 20 ppm [4]: 0
- Disease Control Rating at 100 ppm [4]: 1
- Disease Control Rating at 500 ppm [4]: 2

Compound: Cn1cc(C(=O)Nc2ccccc2CC2CCCCC2)c(C(F)(F)F)n1 [Example 130, 1H-pyrazole-4-carboxamide, N-[2-(cyclohexylmethyl)phenyl]-1-methyl-3-(trifluoromethyl)-]
- IC50 [1]: 0.37 µM
- pest or weed control at 50 ppm [2]: 2%
- pest or weed control at 200 ppm [2]: 21%
- Disease Control Rating at 0.5 mg/mL [3]: 2
- Disease Control Rating at 20 ppm [4]: 0
- Disease Control Rating at 100 ppm [4]: 0
- Disease Control Rating at 500 ppm [4]: 0

Compound: Cn1cc(C(=O)Nc2ccccc2C2CCCC2)c(Br)n1 [Example 64, 1H-pyrazole-4-carboxamide, 3-bromo-N-(2-cyclopentylphenyl)-1-methyl-]
- IC50 [1]: 0.047 µM
- pest or weed control at 50 ppm [2]: 10%
- pest or weed control at 200 ppm [2]: 28%
- Disease Control Rating at 0.02 mg/mL [3]: 1
- Disease Control Rating at 0.1 mg/mL [3]: 3
- Disease Control Rating at 0.5 mg/mL [3]: 3
- Disease Control Rating at 20 ppm [4]: 1
- Disease Control Rating at 100 ppm [4]: 1
- Disease Control Rating at 500 ppm [4]: 2

Compound: Cc1c(C(=S)Nc2ccccc2[C@@H]2C[C@H]3CC[C@@H]2C3)c(Cl)nn1C (relative stereo) [Example 103, 1H-pyrazole-4-carbothioamide, N-(2-bicyclo[2.2.1]hept-2-ylphenyl)-3-chloro-1,5-dimethyl-, exo-]
- IC50 [1]: 0.52 µM
- pest or weed control at 50 ppm [2]: 5%
- pest or weed control at 200 ppm [2]: 18%
- Disease Control Rating at 0.5 mg/mL [3]: 0
- Disease Control Rating at 500 ppm [4]: 0

Compound: Cn1cc(C(=O)Nc2ccccc2C2CCCCC2)c(I)n1 [Example 56, 1H-pyrazole-4-carboxamide, N-[2-(cyclohexyl)phenyl]-3-iodo-1-methyl-]
- IC50 [1]: 0.013 µM
- pest or weed control at 50 ppm [2]: 46%
- pest or weed control at 200 ppm [2]: 70%
- Disease Control Rating at 0.5 mg/mL [3]: 0
- Disease Control Rating at 500 ppm [4]: 0

Compound: Cn1cc(C(=O)Nc2ccccc2C2CCCCC2)c(OC(F)F)n1 [Example 59]
- IC50 [1]: 1 µM
- pest or weed control at 50 ppm [2]: 0%
- pest or weed control at 200 ppm [2]: 0%
- Disease Control Rating at 0.5 mg/mL [3]: 0
- Disease Control Rating at 500 ppm [4]: 0

Compound: Cn1cc(C(=O)Nc2ccccc2OCCCC2CCCC2)c(C(F)(F)F)n1 [Example 49, 1H-pyrazole-4-carboxamide, N-[2-(3-cyclopentylpropoxy)phenyl]-1-methyl-3-(trifluoromethyl)-]
- IC50 [1]: 0.047 µM
- pest or weed control at 50 ppm [2]: 4%
- pest or weed control at 200 ppm [2]: 0%
- Disease Control Rating at 0.5 mg/mL [3]: 0
- Disease Control Rating at 500 ppm [4]: 0
